Article PMC10177692, “Novel topoisomerase II/EGFR dual inhibitors: design, synthesis and docking studies of naphtho[2′,3′:4,5]thiazolo[3,2-a]pyrimidine hybrids as potential anticancer agents with apoptosis inducing activity” (Journal of Enzyme Inhibition and Medicinal Chemistry, 2023)

Assays:
EGFR = target: T1, EGFR (Homo sapiens, UniProt P00533); assay: EGFR kinase assay kit; assay type: biochemical; details: mean ± SE
T1 construct: purchased BPS Bioscience, San Diego, CA, USA
Experimental: The kinase activity of EGFR was assessed for 6a, 6c and 6i hybrids using EGFR kinase assay kit (BPS Bioscience, San Diego, CA, USA) based on the manufacturer’s instructions. Three independent experiments were performed for each compound and Mean ± SE were calculated.

Bax = Bax level ELISA in MCF-7 cells; assay type: cell-based, human; details: for Bax Conc.(pg/ml): MCF-7, at IC50, 24 h, control 83.16 ± 6.2; for Bax FLD: MCF-7, at IC50, fold of control cells
Experimental: MCF-7 cells were cultured in DMEM supplied with 10% FBS and incubated in 5% CO2 in air at 37 °C. […] Cell lysate was diluted using standard diluent buffer over the range of assay. Bax and Bcl-2 content in the lysate was assessed using human Bax ELISA kit (DRG, USA) and Bcl-2 ELISA Kit (Zymed Laboratories, Invitrogen Immuno-detection, Canada), respectively, according to the manufacturer’s instructions for each kit. The results were expressed as Mean ± SE of three independent experiments.

topoisomerase II = target: T2, topoisomerase II (Homo sapiens, UniProt P11388); assay: DNA topo II inhibition assay (kDNA, agarose gel); assay type: biochemical; details: 10 µM, with topo II
T2 construct: purchased Topogen, USA
Experimental: Using the procedure outlined in topoisomerase II Drug Screening Kit (Topogen, USA), the effect of 6a, 6c and 6i on topoisomerase II inhibition and the effectiveness of catenated/decatenated kDNA formation were examined. The reaction mixture includes 10 mM MgCl2, 50 mM Tris-HCl, 0.5 mM dithiothreitol, […]/ml bovine serum albumin, 200–300 ng of kDNA and topoisomerase II. […] After the reaction samples were incubated for 30 min at 37 °C, the reaction was stopped by adding […] of a stop buffer containing 10% (w/v) SDS and […] of 0.5 mg/ml proteinase followed by incubating the mixture for 10 min at 37 °C. The reaction mixture was separated by 1% agarose gel and examined after being stained with ethidium bromide.

T1 sequence (P00533 25-1210): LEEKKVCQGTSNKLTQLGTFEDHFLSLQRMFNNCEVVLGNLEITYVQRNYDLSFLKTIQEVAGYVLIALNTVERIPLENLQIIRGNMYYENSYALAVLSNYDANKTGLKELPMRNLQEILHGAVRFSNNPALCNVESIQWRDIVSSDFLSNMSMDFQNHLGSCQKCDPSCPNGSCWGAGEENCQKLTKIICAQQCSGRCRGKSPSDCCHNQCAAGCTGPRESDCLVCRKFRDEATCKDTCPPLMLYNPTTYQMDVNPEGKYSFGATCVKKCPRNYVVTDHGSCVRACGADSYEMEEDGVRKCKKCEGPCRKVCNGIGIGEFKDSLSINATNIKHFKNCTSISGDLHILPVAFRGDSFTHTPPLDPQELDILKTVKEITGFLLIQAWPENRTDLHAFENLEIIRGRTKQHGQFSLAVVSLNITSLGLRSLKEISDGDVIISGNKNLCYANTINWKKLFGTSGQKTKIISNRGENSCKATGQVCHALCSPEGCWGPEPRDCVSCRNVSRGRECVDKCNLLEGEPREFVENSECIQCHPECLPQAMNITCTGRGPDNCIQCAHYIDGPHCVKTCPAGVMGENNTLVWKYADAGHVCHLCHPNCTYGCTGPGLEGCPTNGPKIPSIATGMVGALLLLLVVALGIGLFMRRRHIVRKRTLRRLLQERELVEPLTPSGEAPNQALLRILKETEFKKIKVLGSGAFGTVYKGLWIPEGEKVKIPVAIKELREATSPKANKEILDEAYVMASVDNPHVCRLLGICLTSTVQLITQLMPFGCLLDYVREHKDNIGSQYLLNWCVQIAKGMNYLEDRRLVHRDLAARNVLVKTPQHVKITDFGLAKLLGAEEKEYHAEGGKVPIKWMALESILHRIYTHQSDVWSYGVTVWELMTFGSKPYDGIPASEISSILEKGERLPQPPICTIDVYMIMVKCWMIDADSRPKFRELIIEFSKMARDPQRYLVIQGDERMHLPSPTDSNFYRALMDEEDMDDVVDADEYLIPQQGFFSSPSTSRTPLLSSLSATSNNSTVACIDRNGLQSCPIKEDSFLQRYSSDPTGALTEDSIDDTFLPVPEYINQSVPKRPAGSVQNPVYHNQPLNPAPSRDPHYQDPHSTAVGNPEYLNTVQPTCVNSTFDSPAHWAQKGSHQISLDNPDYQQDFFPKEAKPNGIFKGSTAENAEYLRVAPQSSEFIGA
T2 sequence (P11388 whole entry): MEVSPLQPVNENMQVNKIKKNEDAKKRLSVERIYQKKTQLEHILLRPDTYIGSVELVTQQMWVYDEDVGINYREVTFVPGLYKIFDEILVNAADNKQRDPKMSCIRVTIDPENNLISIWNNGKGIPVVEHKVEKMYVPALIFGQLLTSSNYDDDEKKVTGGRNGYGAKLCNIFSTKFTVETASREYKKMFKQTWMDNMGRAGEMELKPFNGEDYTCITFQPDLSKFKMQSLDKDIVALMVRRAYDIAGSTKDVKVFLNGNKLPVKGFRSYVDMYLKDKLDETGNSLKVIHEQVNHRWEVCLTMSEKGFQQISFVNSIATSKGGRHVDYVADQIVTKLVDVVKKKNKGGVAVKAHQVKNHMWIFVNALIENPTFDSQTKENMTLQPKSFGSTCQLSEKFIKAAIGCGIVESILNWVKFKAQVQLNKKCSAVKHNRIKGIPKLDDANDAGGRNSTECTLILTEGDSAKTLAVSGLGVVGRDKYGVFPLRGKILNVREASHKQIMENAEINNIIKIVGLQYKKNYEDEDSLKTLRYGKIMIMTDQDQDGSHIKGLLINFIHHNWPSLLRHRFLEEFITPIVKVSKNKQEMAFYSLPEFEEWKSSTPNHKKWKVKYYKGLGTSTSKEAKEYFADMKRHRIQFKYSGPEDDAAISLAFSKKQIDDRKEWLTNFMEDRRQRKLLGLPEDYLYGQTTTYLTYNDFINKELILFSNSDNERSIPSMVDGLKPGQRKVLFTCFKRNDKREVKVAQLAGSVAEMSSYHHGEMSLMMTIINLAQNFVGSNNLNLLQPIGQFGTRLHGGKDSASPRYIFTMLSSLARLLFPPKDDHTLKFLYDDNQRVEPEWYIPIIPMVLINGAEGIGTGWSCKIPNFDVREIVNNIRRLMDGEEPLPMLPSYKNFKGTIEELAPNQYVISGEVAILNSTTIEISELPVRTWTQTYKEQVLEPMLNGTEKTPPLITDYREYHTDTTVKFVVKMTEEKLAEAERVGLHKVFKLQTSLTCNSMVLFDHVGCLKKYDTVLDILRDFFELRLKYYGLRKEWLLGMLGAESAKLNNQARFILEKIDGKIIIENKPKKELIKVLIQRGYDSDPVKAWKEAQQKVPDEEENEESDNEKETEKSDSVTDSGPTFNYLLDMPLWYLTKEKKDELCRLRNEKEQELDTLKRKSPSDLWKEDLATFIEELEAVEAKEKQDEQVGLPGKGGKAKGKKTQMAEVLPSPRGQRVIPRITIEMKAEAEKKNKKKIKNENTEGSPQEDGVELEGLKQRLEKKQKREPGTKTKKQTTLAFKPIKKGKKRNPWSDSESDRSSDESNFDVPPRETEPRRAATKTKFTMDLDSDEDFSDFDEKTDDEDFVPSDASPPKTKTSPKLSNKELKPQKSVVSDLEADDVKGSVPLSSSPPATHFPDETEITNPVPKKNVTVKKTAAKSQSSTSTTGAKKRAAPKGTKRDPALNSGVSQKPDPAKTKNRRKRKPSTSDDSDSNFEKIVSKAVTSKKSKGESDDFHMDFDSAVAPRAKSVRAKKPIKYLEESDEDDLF

| SMILES | IC50 (EGFR; read-out: EGFR inhibitory activity IC50) [µM] | Bax Conc.(pg/ml) (Bax) [pg/mL] | Bax FLD (Bax) [fold] | linear DNA formation from catenated kDNA (topoisomerase II) | EGFR inhibitory activity IC50 (EGFR) |
| --- | --- | --- | --- | --- | --- |
| COc1ccc(-c2nc3sc4c(n3c(=O)c2C#N)C(=O)c2ccccc2C4=O)cc1 [Compound 6a, 2–(4-Methoxyphenyl)-4,6,11-trioxo-6,11-dihydro-4H-naphtho[2′,3′:4,5]-thiazolo[3,2-a]pyrimidine-3-carbonitrile] | 0.016 ± 0.00047 | 436.1 ± 5.1 | 5.24 | the production of linear DNA was not noticed |  |
| N#Cc1c(-c2ccc([N+](=O)[O-])cc2)nc2sc3c(n2c1=O)C(=O)c1ccccc1C3=O [Compound 6i, 2–(4-Nitrophenyl)-4,6,11-trioxo-6,11-dihydro-4H-naphtho[’',’':4,5]thiazolo-[3,2-a]pyrimidine-3-carbonitrile] |  | 581.5 ± 8.7 | 6.99 | the production of linear DNA was not noticed | nearly equipotent to that of erlotinib |
